Test results as given in patent US7883715B2, “Pesticide compositions containing dicarboxylic acids” (Monsanto Technology LLC, priority 2002, dated 2011).
Like-named read-outs stand apart in the source and are kept apart here.

Experiments:
ABUTH = experiment: Greenhouse herbicidal effectiveness, ABUTH; type: in vivo, velvetleaf; details: for efficacy ABUTH: Table 19A, 16 days after treatment; for inhibition at 2 g/ha / inhibition at 3 g/ha / inhibition at 4 g/ha / inhibition at 5 g/ha: Abutilon theophrasti
Excerpt: (§1) The following greenhouse testing procedure was used for evaluating compositions of the Examples to determine herbicidal effectiveness, except where otherwise indicated.
(§2) Seeds of the plant species indicated were planted in 88 mm square pots in a soil mix which was previously sterilized and prefertilized with a 14-14-14 NPK slow release fertilizer at a rate of 3.6 kg/m3. The pots were placed in a greenhouse with sub-irrigation. About one week after emergence, seedlings were thinned as needed, including removal of any unhealthy or abnormal plants, to create a uniform series of test pots.
(§3) The plants were maintained for the duration of the test in the greenhouse where they received a minimum of 14 hours of light per day. […] Exposure temperatures were not precisely controlled but averaged about 29° C. during the day and about 21° C. during the night. Plants were sub-irrigated throughout the test to ensure adequate soil moisture levels.
(§4) Pots were assigned to different treatments in a fully randomized experimental design with 6 replications. A set of pots was left untreated as a reference against which affects of the treatments could later be evaluated.
(§5) Application of glyphosate compositions was made by spraying with a track sprayer fitted with a 9501E nozzle calibrated to deliver a spray volume of 93 liters per hectare (l/ha) at a pressure of 165 kilopascals (kPa). After treatment, pots were returned to the greenhouse until ready for evaluation.
(§6) Treatments were made using dilute aqueous compositions. These could be prepared as spray compositions directly from their ingredients, or by dilution with water of preformulated concentrate compositions.
(§7) For evaluation of herbicidal effectiveness, all plants in the test were examined by a single practiced technician, who recorded percent control, a visual measurement of the effectiveness of each treatment by comparison with untreated plants. […] The reported % control values represent the average for all replicates of each treatment.

ECHCF = experiment: Greenhouse herbicidal effectiveness, ECHCF; type: in vivo, Japanese millet, barnyardgrass; details: Table 19A, 16 days after treatment
Excerpt: as §1, §2, §3, §4, §5, §6, §7

TRZVX = experiment: Greenhouse herbicidal effectiveness, TRZVX; type: in vivo, wheat; details: Table 19A, 16 days after treatment
Excerpt: as §1, §2, §3, §4, §5, §6, §7

plants = experiment: Whole plant response to oxalic acid by itself; type: in vivo; details: enzyme studies and whole plant response
Excerpt: Glyphosate inhibits the shikimic acid pathway which leads to the biosynthesis of aromatic compounds including amino acids, plant hormones and vitamins. Specifically, glyphosate curbs the conversion of phosphoenolpyruvic acid (PEP) and 3-phosphoshikimic acid to 5-enolpyruvyl-3-phosphoshikimic acid by inhibiting the EPSPS enzyme. It is believed that oxalic acid and other dicarboxylic acids enhance the binding efficiency of glyphosate to the S3P-EPSPS complex, resulting in a whole plant response to the oxalate at a given glyphosate concentration. […] This would lower the Kd of the S3P-EPSPS-glyphosate ternary complex. Data reported in the literature from x-ray crystallography have clearly identified the 427 amino acid side chains. Each of the six α-helices in the top domain and four of the six α-helices in the lower domain are capped with basic amino acid residues. Electrostatic interaction of a dicarboxylic acid or other compound of the proper stearic requirement with these basic amino acid residues on the surface of the two domains of the enzyme are believed to produce a stapling action. Such stapling action is possible only on at least a partially closed conformation of the ternary complex of S3P-EPSPS-glyphosate. […] Any compound with stapling action to close the ternary complex tighter, thereby enhancing the inhibition of the enzyme is a suitable enhancer component of the invention.

EPSPS enzyme = target: T1, EPSPS enzyme (Escherichia coli, UniProt P0A6D3); experiment: Enzyme studies of EPSPS inhibition; type: biochemical; details: oxalic acid without glyphosate
T1 sequence (P0A6D3 1-427): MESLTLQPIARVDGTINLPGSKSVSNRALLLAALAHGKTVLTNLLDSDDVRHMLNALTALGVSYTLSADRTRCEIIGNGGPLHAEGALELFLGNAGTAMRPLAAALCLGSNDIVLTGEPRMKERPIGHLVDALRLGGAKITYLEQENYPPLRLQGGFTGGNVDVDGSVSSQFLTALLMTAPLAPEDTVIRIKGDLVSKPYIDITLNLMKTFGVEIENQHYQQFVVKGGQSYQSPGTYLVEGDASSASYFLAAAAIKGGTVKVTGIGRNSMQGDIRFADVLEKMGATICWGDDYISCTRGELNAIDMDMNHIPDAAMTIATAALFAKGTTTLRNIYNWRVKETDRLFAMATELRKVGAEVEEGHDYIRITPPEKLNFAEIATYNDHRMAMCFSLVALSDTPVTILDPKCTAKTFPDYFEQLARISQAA
Excerpt: It has been discovered that oxalic acid and derivatives thereof enhance the pesticidal activity of a pesticide by acting as either an allosteric or cooperative effecter of the inhibition of the target enzyme 5-enolpyruvylishikimate-3-phosphate synthase (hereinafter referred to as EPSP synthase or EPSPS). For example, oxalic acid increases the inhibition of EPSPS enzyme by glyphosate to enhance the physiological response of plants at the enzyme level. […] In other words, the oxalic acid is absorbed and systemically transported throughout the plant.
Glyphosate inhibits the shikimic acid pathway which leads to the biosynthesis of aromatic compounds including amino acids, plant hormones and vitamins. Specifically, glyphosate curbs the conversion of phosphoenolpyruvic acid (PEP) and 3-phosphoshikimic acid to 5-enolpyruvyl-3-phosphoshikimic acid by inhibiting the EPSPS enzyme. It is believed that oxalic acid and other dicarboxylic acids enhance the binding efficiency of glyphosate to the S3P-EPSPS complex, resulting in a whole plant response to the oxalate at a given glyphosate concentration. […] This would lower the Kd of the S3P-EPSPS-glyphosate ternary complex. Data reported in the literature from x-ray crystallography have clearly identified the 427 amino acid side chains. […]

[1] = 30 g a.e./ha, tank mix OTH1 1 % v/v
[2] = 70 g a.e./ha, tank mix OTH1 1 % v/v
[3] = 100 g a.e./ha, tank mix OTH1 1 % v/v
[4] = 200 g a.e./ha, tank mix OTH1 1 % v/v

| Structure (SMILES) | efficacy ABUTH (ABUTH; 30 g a.e./ha, no OTH1) | efficacy ABUTH (ABUTH; [1]) | efficacy ABUTH (ABUTH; 70 g a.e./ha, no OTH1) | efficacy ABUTH (ABUTH; [2]) | efficacy ABUTH (ABUTH; 100 g a.e./ha, no OTH1) | efficacy ABUTH (ABUTH; [3]) | efficacy ABUTH (ABUTH; 200 g a.e./ha, no OTH1) | efficacy ABUTH (ABUTH; [4]) | efficacy ECHCF (ECHCF; 30 g a.e./ha, no OTH1) | efficacy ECHCF (ECHCF; [1]) | efficacy ECHCF (ECHCF; 70 g a.e./ha, no OTH1) | efficacy ECHCF (ECHCF; [2]) | efficacy ECHCF (ECHCF; 100 g a.e./ha, no OTH1) | efficacy ECHCF (ECHCF; [3]) | efficacy ECHCF (ECHCF; 200 g a.e./ha, no OTH1) | efficacy ECHCF (ECHCF; [4]) | efficacy TRZVX (TRZVX; 30 g a.e./ha, no OTH1) | efficacy TRZVX (TRZVX; [1]) | efficacy TRZVX (TRZVX; 70 g a.e./ha, no OTH1) | efficacy TRZVX (TRZVX; [2]) | other results |
| --- | --- | --- | --- | --- | --- | --- | --- | --- | --- | --- | --- | --- | --- | --- | --- | --- | --- | --- | --- | --- | --- |
| CCc1cnc(C2=NC(C)(C(C)C)C(=O)N2)c(C(=O)O)c1 (stereo not shown) [imazethapyr] | 73 | 72 | 80 | 81 | 82 | 85 | 85 | 89 | 68 | 66 | 72 | 71 | 75 | 74 | 87 | 80 | 14 | 25 | 41 | 33 | efficacy TRZVX (TRZVX; 100 g a.e./ha, no OTH1): 52; efficacy TRZVX (TRZVX; [3]): 50; efficacy TRZVX (TRZVX; 200 g a.e./ha, no OTH1): 73; efficacy TRZVX (TRZVX; [4]): 67 |
| c1cc[n+]2c(c1)-c1cccc[n+]1CC2 [diquat] | 5 | 10 | 15 | 30 | 20 | 41 | 32 | 57 | 19 | 11 | 33 | 24 | 43 | 33 | 46 | 50 | 3 | 14 | 7 | 16 | efficacy TRZVX (TRZVX; 100 g a.e./ha, no OTH1): 27; efficacy TRZVX (TRZVX; [3]): 19; efficacy TRZVX (TRZVX; 200 g a.e./ha, no OTH1): 46; efficacy TRZVX (TRZVX; [4]): 47 |
| O=C(O)C(=O)O [oxalic acid, Oxalic Acid] |  |  |  |  |  |  |  |  |  |  |  |  |  |  |  |  |  |  |  |  | inhibition at 2 g/ha (ABUTH; 336 h, read-out: % inhibition ABUTH (14 DAT), oxalate/oxalic acid alone, 2 g a.e./ha, 14 DAT, Table 44A): 0%; inhibition at 3 g/ha (ABUTH; 336 h, read-out: % inhibition ABUTH (14 DAT), oxalate/oxalic acid alone, 3 g a.e./ha, 14 DAT, Table 44A): 0%; inhibition at 4 g/ha (ABUTH; 336 h, read-out: % inhibition ABUTH (14 DAT), oxalate/oxalic acid alone, 4 g a.e./ha, 14 DAT, Table 44A): 0%; inhibition at 5 g/ha (ABUTH; 336 h, read-out: % inhibition ABUTH (14 DAT), oxalate/oxalic acid alone, 5 g a.e./ha, 14 DAT, Table 44A): 0%; inhibition at 2 g/ha (ABUTH; 480 h, read-out: % inhibition ABUTH (20 DAT), oxalate/oxalic acid alone, 2 g a.e./ha, 20 DAT, Table 44A): 0%; inhibition at 3 g/ha (ABUTH; 480 h, read-out: % inhibition ABUTH (20 DAT), oxalate/oxalic acid alone, 3 g a.e./ha, 20 DAT, Table 44A): 0%; inhibition at 4 g/ha (ABUTH; 480 h, read-out: % inhibition ABUTH (20 DAT), oxalate/oxalic acid alone, 4 g a.e./ha, 20 DAT, Table 44A): 0%; inhibition at 5 g/ha (ABUTH; 480 h, read-out: % inhibition ABUTH (20 DAT), oxalate/oxalic acid alone, 5 g a.e./ha, 20 DAT, Table 44A): 0%; herbicidal property by itself (plants): does not have any herbicidal property; inhibitory effect on the EPSPS enzyme per se (EPSPS enzyme): do not have any inhibitory effect on the enzyme per se |
